# The source made the active and inactive calls.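 The calls were made as follows: active = clearly stronger inhibition of phosphomevalonate kinase than of the coupling enzymes alone in a parallel counterscreen; inactive = the rest.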
# Target: phosphomevalonate kinase (Streptococcus pneumoniae D39)
# Test: phosphomevalonate kinase inhibition IC50 – biochemical, mevalonate pathway, coupling enzyme counter-screen, dose response (AID 549)
# Details: PMK enzyme, PK/LDH coupled NADH absorbance 340 nm
row,SMILES,outcome
1,O=C(Nc1ccc(F)cc1)N(CCCN1CCOCC1)Cc1cc2cc3c(cc2[nH]c1=O)OCO3,inactive
2,CN(C(=O)c1cnccn1)c1nnc(-c2cccnc2)s1,inactive
3,CCOC(=O)C1=C(C)NC(=O)NC1/C(C)=C/c1ccccc1 (stereo unspecified),inactive
4,CCOc1ccc(CNC(=O)C2CCN(S(=O)(=O)N3CCCC3)CC2)cc1OC,inactive
5,CC(c1ccccc1)C(CC(=O)O)C(=O)NC1CCCCC1 (stereo unspecified),inactive
6,O=C(COC(=O)CCc1c[nH]c(=O)[nH]1)Nc1ccccc1,inactive
7,CCc1nn(C(C)C(=O)NC(C)CCc2ccco2)c(=O)c2cc3occc3n12 (stereo unspecified),inactive
8,COc1cccc(OC)c1OCC(O)CN1CCN(c2ccccc2)CC1 (stereo unspecified),inactive
9,COc1cc2cc(CN(CCCO)S(=O)(=O)c3ccccc3Cl)c(=O)[nH]c2cc1OC,inactive
10,COC(=O)c1cc(=O)nc2sccn12,inactive
11,O=C(CCN1C(=O)c2ccccc2C1=O)NC1=NCCS1,inactive
12,COc1ccc(NC(=O)N(C2CCCCC2)C(C)c2ccco2)c(OC)c1 (stereo unspecified),inactive
13,Cc1nc2ccccc2n2c(O)c(CC(=O)O)cc12,inactive
14,Cc1ccc(C(=O)c2cc3c(cc2N)OCCO3)cc1,inactive
15,O=C(Nc1c(-c2ccccc2)nc2sccn12)c1ccccc1,inactive
16,COc1ccc(OCC(=O)N2CCN(c3nnc(-c4ccccc4)c4ccccc34)CC2)cc1,inactive
17,Cc1cc(OCC(=O)NCCO)cc(C)c1Cl,inactive
18,CCC(C)(C)NC(=O)C(c1ccccc1F)N(Cc1ccco1)C(=O)c1csnn1 (stereo unspecified),inactive
19,CC(=O)N1CCc2cc(S(=O)(=O)NC3CCCc4ccccc43)ccc21 (stereo unspecified),inactive
20,OCCNCC1(O)C2CC3CC(C2)CC1C3 (stereo unspecified),inactive
21,CC(C)CN(CC(C)C)S(=O)(=O)N1CCC(C(=O)NC2CCCCCCC2)CC1,inactive
22,CCOc1ccc(S(=O)(=O)NCCCN2CCOCC2)c2ccccc12,inactive
23,O=C(Nc1cccc2ccccc12)c1cnccn1,inactive
24,CCOC(=O)C1CCN(C(=O)C2CCN(S(=O)(=O)N3CCCC3)CC2)CC1,inactive
25,Cn1c(SCC(=O)N2CCOCC2)nnc1-c1ccc(NC(=O)c2ccccc2F)cc1,inactive
26,COCCNC(=O)C(c1ccc(C)o1)N(Cc1ccc(OC)cc1)C(=O)Cn1nnc2ccccc21 (stereo unspecified),inactive

row,SMILES,outcome
1,O=C(NC1CC1)c1ccc2c(c1)ncn2C1CCCC1,inactive
2,COc1ccccc1C(c1nnnn1C(C)(C)C)N1CCN(Cc2ccncc2)CC1 (stereo unspecified),inactive
3,Cc1ccc(CN2CCN(C(=O)C3CCC3)CC2)cc1,inactive
4,CCNc1nc(NC(C)(C)C)nc(N(C#N)CC)n1,inactive
5,CN1CCc2c(sc3c2c(=O)n(-c2ccccc2)c2nnc(SCc4ccc(F)cc4)n32)C1,inactive
6,CN1CCN(S(=O)(=O)c2cccc(S(=O)(=O)c3ccc(Cl)c(Cl)c3)c2)CC1,inactive
7,CON(C)c1nc(OCCNC(=O)OCc2ccc(Cl)cc2Cl)nc(N(C)C)n1,inactive
8,Cc1nc2ccc3nc(NC(=O)c4ccco4)sc3c2s1,inactive
9,Cc1ccc(NC(=O)CSc2nnc(Cn3c(=O)sc4ccccc43)n2C)cc1Cl,inactive
10,CCN(CC)C(=O)C1CCCN(C/C(C)=C/c2ccccc2)C1 (stereo unspecified),inactive
11,CCOC(=O)C1=C(O)C(=O)N(c2ccc(S(N)(=O)=O)cc2)C1c1ccc(OC)cc1 (stereo unspecified),inactive
12,Cc1onc(-c2c(Cl)cccc2Cl)c1C(=O)Nc1ccc2c(c1)OCO2,inactive
13,Cc1cc(C)n2nc(SCc3cc(=O)n4c(C)cccc4n3)nc2n1,inactive
14,CC1(C)CC(=O)C(C(C2=C(O)CC(C)(C)CC2=O)c2cccc(O)c2)C(=O)C1 (stereo unspecified),inactive
15,COc1ccc(N2CCN(C(c3ccco3)c3sc4nc(C)nn4c3O)CC2)cc1 (stereo unspecified),inactive
16,CCN(CC)C(=O)NC1CC2CCCC(C1)N2Cc1ccccc1 (stereo unspecified),inactive
17,CCOC(=O)C1=C(NC(=O)c2ccc(Br)o2)Nc2ccccc2N=C1,inactive
18,CCOc1ccc2[nH]c(=O)c(C(c3nnnn3CC3CCCO3)N3CCc4ccccc4C3)cc2c1 (stereo unspecified),inactive
19,COc1cc(-c2nnc(COc3ccc4ccccc4c3)o2)cc(OC)c1OC,inactive
20,CCOC(=O)C1=C(N)OC2=C(C(=O)CCC2)C1c1ccc(C)s1 (stereo unspecified),inactive
21,O=C(Nn1c(C2CC2)nc2ccccc2c1=O)c1ccco1,inactive
22,Cc1csc(NC(=O)C2CCC(C)(C(=O)O)C2(C)C)n1 (stereo unspecified),inactive
23,Cc1occc1-c1nnc(SCC(=O)N2CCOCC2)n1Cc1ccco1,inactive
24,COc1ccc(C(=O)Nc2ccncc2)cc1OC,inactive
25,CCc1nnc(NC(=O)CSc2nnc(Cc3cccn3C)n2C)s1,inactive
26,COc1ccc(C2C3=C(OC(C)=O)c4ccccc4C3=Nc3c2c(=O)n(C)c(=O)n3C)cc1 (stereo unspecified),inactive

row,SMILES,outcome
1,CC(C)n1nnnc1SCC(=O)Nc1ccccc1N1CCOCC1,inactive
2,O=C(c1cccnc1)N1CCc2ccccc2C1,inactive
3,Cc1nn(Cc2ccccc2)c2c1C(c1ccncc1)C(C#N)=C(N)O2 (stereo unspecified),inactive
4,CCCN(C(=O)c1ccccc1N)c1c(C)n(C)n(-c2ccccc2)c1=O,inactive
5,COc1ccc(N2C(C)=CS/C2=C(/C#N)c2nnc(N3CCOCC3)n2-c2ccccc2)cc1,inactive
6,CCOc1ncccc1C(=O)OCc1cc(=O)n2c(n1)sc1ccccc12,inactive
7,COc1ccc(NC(=O)c2ccco2)cc1NC(=O)c1ccc(C)cc1,inactive
8,c1ccc2sc(SCc3ccc(-c4nnco4)cc3)nc2c1,inactive
9,O=C(NCc1ccc2c(c1)OCO2)c1cc2n(n1)C(C(F)(F)F)CC(c1ccc3c(c1)OCO3)N2 (stereo unspecified),inactive
10,Cc1ccc(-c2nnn(CC(=O)N(CC(=O)NCC3CCCO3)c3ccc(F)c(Cl)c3)n2)o1 (stereo unspecified),inactive
11,CC(C)CCn1nnnc1C(c1ccc(F)cc1)N1CCN(C(=O)c2ccco2)CC1 (stereo unspecified),inactive
12,CCOCCCNC(=O)C1CCN(S(=O)(=O)CC)CC1,inactive
13,CNS(=O)(=O)c1cccc(C(=O)OC2CCCCC2=O)c1 (stereo unspecified),inactive
14,Cn1nnnc1Sc1ncnc2scc(-c3ccc(F)cc3)c12,inactive
15,CC(C)(C)NC(=O)CSc1nnc(-c2ccccn2)n1-c1ccccc1,inactive
16,Cc1nnc(SCC(=O)Nc2ncc(Cc3ccc(F)cc3)s2)n1N,inactive
17,CC(=O)N1CCN(c2nc3cc4c(cc3nc2NS(=O)(=O)c2ccccc2)OCCO4)CC1,inactive
18,CCn1c(SCC(=O)c2[nH]c(C)c(C(C)=O)c2C)nnc1-c1cccs1,inactive
19,c1cncc(C(c2nnnn2C2CCCC2)N2CCCC2)c1 (stereo unspecified),inactive
20,C[C@]12CC[C@@H]3c4ccc(OS(=O)(=O)O)cc4CC[C@H]3[C@@H]1CCC2=O,inactive
21,O=S(=O)(Nc1ccc(S(=O)(=O)N2CCOCC2)cc1)c1ccccc1,inactive
22,CCn1c(SCC(=O)Nc2ccc(Cl)cc2)nnc1C1CC1,inactive
23,Cc1nonc1NC(=O)CSc1ccc(-c2ccccc2)nn1,inactive
24,CCS(=O)(=O)N1CCC(C(=O)NCc2ccco2)CC1,inactive

# From PubChem BioAssay AID549 (SRMLSC, 2006)
